# Measurements reported in patent US20240246941A1, “SUBSTITUTED 4-(3-AMINOPROP-1-YL)AMINOQUINOLINE ANALOGS AS MODULATORS OF MELANOMA-ASSOCIATED ANTIGEN 11 UBIQUITIN LIGASE” (ST. JUDE CHILDREN'S RESEARCH HOSPITAL, INC., priority 2020, published 2024).
# Target: MAGE-A11:PCF11 (Homo sapiens (Human), UniProt P43364)
# Assay: TR-FRET single point screening at 15 μM
# Assay type: binding
# Set-up: unit not given here
# Details: single point TR-FRET screening at 15 μM against MAGE-A11:PCF11
# Outline: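 Competition TR-FRET: compounds at final 15 μM mixed with 200 nM FAM-PCF11_4, 5 nM GST-MAGEA11 and 5 nM Tb-anti-GST in Tris pH 7.5/MgCl2/BSA/DTT buffer, room temperature, 90 min. Emission ratio 520/490 nm (340 nm excitation) expressed as % inhibition relative to positive and negative controls.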
# MAGE-A11:PCF11, sequence (P43364 218-429): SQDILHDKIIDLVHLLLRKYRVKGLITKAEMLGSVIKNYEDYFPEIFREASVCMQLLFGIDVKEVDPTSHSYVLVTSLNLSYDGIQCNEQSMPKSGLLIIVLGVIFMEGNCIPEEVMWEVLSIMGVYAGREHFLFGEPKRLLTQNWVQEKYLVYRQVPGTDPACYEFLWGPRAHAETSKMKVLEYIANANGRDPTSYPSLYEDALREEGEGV
row,Structure (SMILES),TR-FRET signal
1,O=C(CN1CCN(C(=O)c2ccccc2)CC1)Nc1c2c(nc3ccccc13)N(c1cccc(Cl)c1)CC2 [SJ000111683],−264.3
2,O=S(=O)(c1ccccc1)c1cnc2ccc(F)cc2c1N1CCN(c2ccccc2F)CC1 [SJ000315166],−99.06
3,CCOC(=O)c1cnc2c(C)cc(C)cc2c1NCCN1CCOCC1 [SJ000172983],8.869
4,COC(=O)CCCCCN(CCCCNc1ccnc2cc(Cl)ccc12)Cc1ccccc1 [SJ000520432],23.58
5,Cc1cccc(N2CCN(c3c(S(=O)(=O)c4ccccc4)cnc4ccccc34)CC2)c1C [SJ000117081],−13.13
6,CCN1CCN(c2c(C(=O)c3ccc(C)cc3)cnc3ccc(OC)cc23)CC1 [SJ000247282],3.9
7,Cc1ccc(C)c(CN(CCCCNc2ccnc3cc(Cl)ccc23)Cc2ccccc2)c1 [SJ000361209],32.65
8,CCCN(CCCNc1c2ccc(Cl)cc2nc2ccc(OC)cc12)Cc1ccc([N+](=O)[O-])s1 [SJ000522735],−154.4
9,O=C(CN1CCN(C(c2ccccc2)c2ccccc2)CC1)Nc1c2c(nc3ccccc13)CCC2 [SJ000111684],11.85
10,CCOc1ccc2ncc(C(=O)c3ccc(C)cc3)c(N3CCN(CC)CC3)c2c1 [SJ000247284],−14.25
11,Clc1ccc2c(NCCCCN(Cc3ccccc3)Cc3ccc4[nH]ccc4c3)ccnc2c1 [SJ000520434],69.44
12,CCCN(CCCNc1c2ccc(Cl)cc2nc2ccc(OC)cc12)Cc1ccc(Br)o1 [SJ000520929],−137.3
13,CCCN(CCCCNc1ccnc2cc(Cl)ccc12)Cc1c[nH]c2ccccc12 [SJ000311204],−3.378
14,O=[N+]([O-])c1ccccc1CN(CCCCNc1ccnc2cc(Cl)ccc12)Cc1ccccc1 [SJ000361200],17.21
15,CCCCCCNCCCNc1c2ccc(Cl)cc2nc2ccc(OC)cc12 [SJ000361097],−281.7
16,COc1ccc(N2CCN(c3c(S(=O)(=O)c4ccccc4)cnc4ccc(Cl)cc34)CC2)cc1 [SJ000083983],−17.94
17,CCCN(CCCNc1c2ccc(Cl)cc2nc2ccc(OC)cc12)Cc1c[nH]c2ccccc12 [SJ000522978],−166.2
18,CCOC(=O)c1cnc2ccc(C(=O)O)cc2c1N1CCN(CCO)CC1 [SJ000280902],−0.5958
19,CCCN(CCCNc1c2ccc(Cl)cc2nc2ccc(OC)cc12)Cc1ccc[nH]1 [SJ000520923],−271
20,O=S(=O)(c1ccccc1)c1cnc2ccc(F)cc2c1N1CCN(Cc2ccccc2)CC1 [SJ000247257],−62.28
21,COc1cccc(CN(CCCCNc2ccnc3cc(Cl)ccc23)Cc2ccccc2)c1 [SJ000361210],11.72

row,Structure (SMILES),TR-FRET signal
1,O=C(O)CCCNC(=O)CNc1c2ccccc2nc2ccccc12 [SJ000016432],9.598
2,COc1ccc2nc3cc(Cl)ccc3c(NCCCNCc3ccc4ccccc4c3)c2c1 [SJ000523038],−109.5
3,CCCCN(CCC)CCCNc1c2ccc(Cl)cc2nc2ccc(OC)cc12 [SJ000522971],−286.9
4,COc1ccc2nc3cc(Cl)ccc3c(NCCCNCc3ccc(F)cc3)c2c1 [SJ000523035],−398.2
5,COc1ccc2nc3cc(Cl)ccc3c(NCCCNCc3ccccc3F)c2c1 [SJ000523034],−353.8
6,CCOC(=O)c1cnc2ccc(OCC)cc2c1NCCN(C)C [SJ000027288],10.66
7,CCOc1ccc2ncc(S(=O)(=O)c3ccc(Cl)cc3)c(N3CCN(c4ccccc4)CC3)c2c1 [SJ000117054],−446.9
8,Fc1ccc(CN2CCC(Nc3ccnc4cc(Cl)ccc34)CC2)cc1 [SJ000523093],10.66
9,CCOC(=O)c1cnc2ccc(OCC)cc2c1N1CCN(C)CC1 [SJ000279526],−7.064
10,Fc1ccccc1CN1CCC(Nc2ccnc3cc(Cl)ccc23)CC1 [SJ000523091],−0.9977
11,COc1ccc2ncc(S(=O)(=O)c3ccccc3)c(N3CCN(c4ccccc4)CC3)c2c1 [SJ000083974],−133
12,COc1ccccc1CN1CCC(Nc2ccnc3cc(Cl)ccc23)CC1 [SJ000523097],8.596
13,CCCCCN(CCCCC)CC(=O)Nc1c2c(nc3ccccc13)CCC2 [SJ000487033],−68.07
14,CN1CCN(c2c(S(=O)(=O)c3ccc(Cl)cc3)cnc3ccccc23)CC1 [SJ000247306],−10.14
15,CCCN(CCCNc1c2ccc(Cl)cc2nc2ccc(OC)cc12)Cc1cccc2c1OCO2 [SJ000522979],−108
16,COc1ccc2nc3cc(Cl)ccc3c(NCCCNCc3ccc(OC(F)(F)F)cc3)c2c1 [SJ000520992],−201
17,COc1ccc2ncc(S(=O)(=O)c3ccc(C)cc3)c(N3CCN(c4ccc(F)cc4)CC3)c2c1 [SJ000117059],−118.5
18,COc1ccc2nc3cc(Cl)ccc3c(NCCCNCc3cc(Br)cs3)c2c1 [SJ000520996],−287.6
19,COc1ccc2nc3cc(Cl)ccc3c(NCCCNCc3ccncc3)c2c1 [SJ000523023],−127.6
20,O=[N+]([O-])c1ccccc1CN1CCC(Nc2ccnc3cc(Cl)ccc23)CC1 [SJ000523094],−2.026

# Same assay, conditions: single point TR-FRET screening of quinoline compounds against MAGE-A11:PCF11; 15 μM
row,Structure (SMILES),TR-FRET signal
1,CCCN(CCCNc1ccnc2cc(Cl)ccc12)CC(C)C [SJ000357568],11.45
2,CCCN(CCCNc1ccnc2cc(C(F)(F)F)ccc12)CCOCc1ccccc1 [SJ000521011],25.82
3,CCCN(CCCNc1ccnc2cc(C(F)(F)F)ccc12)Cc1cccc(OC(F)(F)F)c1 [SJ000520473],9.085
4,COc1ccc(-c2ccc3c(NCCCNCc4ccco4)ccnc3c2)cc1 [SJ000311294],7.824
5,FC(F)(F)Oc1ccc(CN(CCCNc2ccnc3cc(Cl)ccc23)Cc2ccccc2)cc1 [SJ000520460],25.05
6,CCCN(CCCNc1ccnc2cc(C(F)(F)F)ccc12)CCC(C)(C)C [SJ000520476],32.33
7,CN(C)c1cccc(Oc2ccc3c(NCCCNCc4ccco4)ccnc3c2)c1 [SJ000311230],63.42
8,Clc1ccc2c(NCCCN(Cc3ccccc3)Cc3ccc4c(c3)OCO4)ccnc2c1 [SJ000522719],9.001
9,CCCN(CCCNc1c2ccc(Cl)cc2nc2ccc(OC)cc12)CC(C)C [SJ000575150],−21.37
10,FC(F)(F)c1ccc2c(NCCCNCc3nc4ccccc4s3)ccnc2c1 [SJ000521062],14.43
11,CCCN(CCCNc1ccnc2cc(Cl)ccc12)Cc1ncc[nH]1 [SJ000523008],4.165
12,Fc1ccc(CN(CCCNc2ccnc3cc(Cl)ccc23)Cc2ccccc2)cc1 [SJ000522721],18.08
13,CCCN(CCCNc1ccnc2cc(C(F)(F)F)ccc12)CC1CCCCC1 [SJ000361268],33.31
14,Clc1ccc2c(NCCCNCc3nc4ccccc4s3)ccnc2c1 [SJ000521034],4.695
15,c1coc(CNCCCNc2ccnc3cc(-c4cccc5ccccc45)ccc23)c1 [SJ000311274],41.57
16,CCCN(CCCNc1c2ccc(Cl)cc2nc2ccc(OC)cc12)Cc1ccc(Br)s1 [SJ000520924],−56.45
17,COc1ccc(C(F)(F)F)cc1CN(CCCNc1ccnc2cc(Cl)ccc12)Cc1ccccc1 [SJ000520450],23.18
18,COc1ccc(CN(CCCNc2ccnc3cc(Cl)ccc23)Cc2ccccc2)cc1OC [SJ000522742],−0.5383
19,Clc1ccc2c(NCCCN(Cc3ccccc3)Cc3ccccn3)ccnc2c1 [SJ000312678],−3.851

row,Structure (SMILES),TR-FRET signal
1,CCC(C)CNCCCNc1ccnc2cc(C(F)(F)F)ccc12 (stereo not shown) [SJ000361112],18.47
2,CCCN(CCCNc1c2ccc(Cl)cc2nc2ccc(OC)cc12)Cc1cc(C(F)(F)F)ccc1OC [SJ000522985],−46.02
3,CCCN(CCCNc1ccnc2cc(C(F)(F)F)ccc12)Cc1ccc(F)cc1 [SJ000523070],26.44
4,CCCCCCN(CCCNc1ccnc2cc(Cl)ccc12)Cc1ccccc1 [SJ000361189],−40.75
5,CCCN(CCCNc1ccnc2cc(Cl)ccc12)CCOCc1ccccc1 [SJ000357577],−13.18
6,CCCN(CCCNc1c2ccc(Cl)cc2nc2ccc(OC)cc12)Cc1ccncc1 [SJ000520918],−1.797
7,Clc1ccc2c(NCCCN(Cc3ccccc3)Cc3ccc4ccccc4c3)ccnc2c1 [SJ000361182],22.05
8,Clc1ccc2c(NCCCN(Cc3ccccc3)Cc3ccoc3)ccnc2c1 [SJ000361170],12.84
9,COc1ccc(CN(CCCNc2ccnc3cc(Cl)ccc23)Cc2ccccc2)cc1F [SJ000520437],23.65
10,CCCN(CCCNc1ccnc2cc(C(F)(F)F)ccc12)Cc1ccccc1F [SJ000361274],19.22
11,CCCN(CCCNc1ccnc2cc(C(F)(F)F)ccc12)Cc1nccs1 [SJ000575189],8.665
12,CCCNCCCNc1ccnc2cc(Cl)ccc12 [SJ000361119],9.785
13,CCCN(CCCNc1ccnc2cc(Cl)ccc12)Cc1c(F)cccc1OC [SJ000357499],19.4
14,CCCN(CCCNc1ccnc2cc(C(F)(F)F)ccc12)Cc1nccn1C [SJ000575170],7.124
15,Cc1ccc(F)cc1CN(CCCNc1ccnc2cc(Cl)ccc12)Cc1ccccc1 [SJ000520458],29.77
16,CCCN(CCCNc1ccnc2cc(Cl)ccc12)Cc1ccc[nH]1 [SJ000357445],10.34
17,COc1ccc(O)c(CN(CCCNc2ccnc3cc(Cl)ccc23)Cc2ccccc2)c1 [SJ000357463],14.17
18,CCCN(CCCNc1ccnc2cc(C(F)(F)F)ccc12)Cc1cncc(Br)c1 [SJ000521007],4.323
19,c1coc(CNCCCNc2ccnc3cc(C4CCCCC4)ccc23)c1 [SJ000311262],32.96
